Data published in ChEMBL document CHEMBL3885861, “Open TG-GATES”.

Species: Rattus norvegicus
Test: Open TG-GATES - Regimen: Daily Repeat
Assay type: toxicity, organism-based, Sprague-Dawley
Design: regimen Daily Repeat, gender Male, age 6 weeks
Conditions: in vivo, po, 100 mg/kg, route gavage, dose level Middle; for APTT / Bas / Eos / Fbg / Hb / Ht / Lym / MCH / MCHC / MCV / Mono / Neu / PT / Plat / RBC / Ret / WBC: tissue Blood; for KIDNEY_L / KIDNEY_R / KIDNEY_TOTAL: tissue Kidney; for LIVER: tissue Liver; for A/G / ALP / ALT / AST / BUN / CRE / Ca / Cl / DBIL / GLC / IP / K / LDH / Na / PL / RALB / TBIL / TC / TG / TP / gamma-GTP: tissue Plasma

SMILES: Clc1c(Cl)c(Cl)c(Cl)c(Cl)c1Cl [PERCHLOROBENZENE]
- TERMINAL_BW (72 h, time 3 day): 223.3 g
- APTT (72 h, time 3 day): 15.9 s
- Bas (72 h, time 3 day): 0%
- Eos (72 h, time 3 day): 1.2%
- Fbg (72 h, time 3 day): 221.4 mg/dL
- Hb (72 h, time 3 day): 14.1 g/dL
- Ht (72 h, time 3 day): 42.1%
- Lym (72 h, time 3 day): 73.2%
- MCH (72 h, time 3 day): 21.7 pg
- MCHC (72 h, time 3 day): 33.5%
- MCV (72 h, time 3 day): 64.8 fL
- Mono (72 h, time 3 day): 7.4%
- Neu (72 h, time 3 day): 18.2%
- PT (72 h, time 3 day): 11.2 s
- Plat (72 h, time 3 day): 104.2 x10_4/uL
- RBC (72 h, time 3 day): 650.6 x10_4/ul
- Ret (72 h, time 3 day): 7.5%
- WBC (72 h, time 3 day): 113.8 x10_2/uL
- KIDNEY_L (72 h, time 3 day): 1 g
- KIDNEY_R (72 h, time 3 day): 1 g
- KIDNEY_TOTAL (72 h, time 3 day): 2 g
- LIVER (72 h, time 3 day): 13.1 g
- A/G (72 h, time 3 day): 1.8
- ALP (72 h, time 3 day): 823 IU/L
- ALT (72 h, time 3 day): 43.4 IU/L
- AST (72 h, time 3 day): 65.8 IU/L
- BUN (72 h, time 3 day): 16 mg/dL
- CRE (72 h, time 3 day): 0.5 mg/dL
- Ca (72 h, time 3 day): 10.6 mg/dL
- Cl (72 h, time 3 day): 106.2 meq/L
- DBIL (72 h, time 3 day): 0.006 mg/dL
- GLC (72 h, time 3 day): 194.8 mg/dL
- IP (72 h, time 3 day): 8.7 mg/dL
- K (72 h, time 3 day): 5.2 meq/L
- LDH (72 h, time 3 day): 121.4 IU/L
- Na (72 h, time 3 day): 139 meq/L
- PL (72 h, time 3 day): 168 mg/dL
- RALB (72 h, time 3 day): 3.7 g/dL
- TBIL (72 h, time 3 day): 0.4 mg/dL
- TC (72 h, time 3 day): 91.8 mg/dL
- TG (72 h, time 3 day): 162.4 mg/dL
- TP (72 h, time 3 day): 5.8 g/dL
- gamma-GTP (72 h, time 3 day): 1.6 IU/L
- TERMINAL_BW ([…], time 7 day): 265.6 g
- TERMINAL_BW ([…], time 14 day): 308.5 g
- TERMINAL_BW ([…], time 28 day): 338.7 g
- APTT ([…], time 7 day): 17.2 s
- Bas ([…], time 7 day): 0%
- Eos ([…], time 7 day): 1.2%
- Fbg ([…], time 7 day): 238.8 mg/dL
- Hb ([…], time 7 day): 14.5 g/dL
- Ht ([…], time 7 day): 43.3%
- Lym ([…], time 7 day): 64.2%
- MCH ([…], time 7 day): 21.3 pg
- MCHC ([…], time 7 day): 33.4%
- MCV ([…], time 7 day): 63.7 fL
- Mono ([…], time 7 day): 14.4%
- Neu ([…], time 7 day): 20.4%
- PT ([…], time 7 day): 11.7 s
- Plat ([…], time 7 day): 115.6 x10_4/uL
- RBC ([…], time 7 day): 680.8 x10_4/ul
- Ret ([…], time 7 day): 5.7%
- WBC ([…], time 7 day): 104 x10_2/uL
- APTT ([…], time 14 day): 19.7 s
- Bas ([…], time 14 day): 0%
- Eos ([…], time 14 day): 1%
- Fbg ([…], time 14 day): 263.2 mg/dL
- Hb ([…], time 14 day): 14.5 g/dL
- Ht ([…], time 14 day): 43.3%
- Lym ([…], time 14 day): 77.6%
- MCH ([…], time 14 day): 20.9 pg
- MCHC ([…], time 14 day): 33.6%
- MCV ([…], time 14 day): 62.3 fL
- Mono ([…], time 14 day): 8%
- Neu ([…], time 14 day): 13.6%
- PT ([…], time 14 day): 12.2 s
- Plat ([…], time 14 day): 117.2 x10_4/uL
- RBC ([…], time 14 day): 695 x10_4/ul
- Ret ([…], time 14 day): 4.6%
- WBC ([…], time 14 day): 156.2 x10_2/uL
- APTT ([…], time 28 day): 23.8 s
- Bas ([…], time 28 day): 0%
- Eos ([…], time 28 day): 2.2%
- Fbg ([…], time 28 day): 320.6 mg/dL
- Hb ([…], time 28 day): 15.3 g/dL
- Ht ([…], time 28 day): 46%
- Lym ([…], time 28 day): 65%
- MCH ([…], time 28 day): 19.7 pg
- MCHC ([…], time 28 day): 33.2%
- MCV ([…], time 28 day): 59.4 fL
- Mono ([…], time 28 day): 15.4%
- Neu ([…], time 28 day): 17.8%
- PT ([…], time 28 day): 15.8 s
- Plat ([…], time 28 day): 100.2 x10_4/uL
- RBC ([…], time 28 day): 774.8 x10_4/ul
- Ret ([…], time 28 day): 3%
- WBC ([…], time 28 day): 182.8 x10_2/uL
- KIDNEY_L ([…], time 7 day): 1.2 g
- KIDNEY_R ([…], time 7 day): 1.2 g
- KIDNEY_TOTAL ([…], time 7 day): 2.3 g
- KIDNEY_L ([…], time 14 day): 1.3 g
- KIDNEY_R ([…], time 14 day): 1.3 g
- KIDNEY_TOTAL ([…], time 14 day): 2.5 g
- KIDNEY_L ([…], time 28 day): 1.5 g
- KIDNEY_R ([…], time 28 day): 1.5 g
- KIDNEY_TOTAL ([…], time 28 day): 2.9 g
- LIVER ([…], time 7 day): 17.2 g
- LIVER ([…], time 14 day): 21.6 g
- LIVER ([…], time 28 day): 29.5 g
- A/G ([…], time 7 day): 1.9
- ALP ([…], time 7 day): 631.4 IU/L
- ALT ([…], time 7 day): 33 IU/L
- AST ([…], time 7 day): 59.2 IU/L
- BUN ([…], time 7 day): 17.2 mg/dL
- CRE ([…], time 7 day): 0.7 mg/dL
- Ca ([…], time 7 day): 10.7 mg/dL
- Cl ([…], time 7 day): 104.2 meq/L
- DBIL ([…], time 7 day): 0.01 mg/dL
- GLC ([…], time 7 day): 179.8 mg/dL
- IP ([…], time 7 day): 7.9 mg/dL
- K ([…], time 7 day): 4.9 meq/L
- LDH ([…], time 7 day): 127.8 IU/L
- Na ([…], time 7 day): 137.8 meq/L
- PL ([…], time 7 day): 191.6 mg/dL
- RALB ([…], time 7 day): 3.9 g/dL
- TBIL ([…], time 7 day): 0.5 mg/dL
- TC ([…], time 7 day): 112.4 mg/dL
- TG ([…], time 7 day): 151.6 mg/dL
- TP ([…], time 7 day): 6.1 g/dL
- gamma-GTP ([…], time 7 day): 1.8 IU/L
- A/G ([…], time 14 day): 2
- ALP ([…], time 14 day): 470.8 IU/L
- ALT ([…], time 14 day): 30.2 IU/L
- AST ([…], time 14 day): 54.2 IU/L
- BUN ([…], time 14 day): 17 mg/dL
- CRE ([…], time 14 day): 0.6 mg/dL
- Ca ([…], time 14 day): 10.4 mg/dL
- Cl ([…], time 14 day): 106.6 meq/L
- DBIL ([…], time 14 day): 0.014 mg/dL
- GLC ([…], time 14 day): 171.2 mg/dL
- IP ([…], time 14 day): 7.8 mg/dL
- K ([…], time 14 day): 4.9 meq/L
- LDH ([…], time 14 day): 102.2 IU/L
- Na ([…], time 14 day): 140.2 meq/L
- PL ([…], time 14 day): 192.6 mg/dL
- RALB ([…], time 14 day): 4.4 g/dL
- TBIL ([…], time 14 day): 0.5 mg/dL
- TC ([…], time 14 day): 115.2 mg/dL
- TG ([…], time 14 day): 145.2 mg/dL
- TP ([…], time 14 day): 6.6 g/dL
- gamma-GTP ([…], time 14 day): 2.8 IU/L
- A/G ([…], time 28 day): 1.6
- ALP ([…], time 28 day): 316.6 IU/L
- ALT ([…], time 28 day): 50.4 IU/L
- AST ([…], time 28 day): 48.8 IU/L
- BUN ([…], time 28 day): 21.8 mg/dL
- CRE ([…], time 28 day): 0.7 mg/dL
- Ca ([…], time 28 day): 11.2 mg/dL
- Cl ([…], time 28 day): 105.6 meq/L
- DBIL ([…], time 28 day): 0.014 mg/dL
- GLC ([…], time 28 day): 159.6 mg/dL
- IP ([…], time 28 day): 9.2 mg/dL
- K ([…], time 28 day): 5.3 meq/L
- LDH ([…], time 28 day): 157.4 IU/L
- Na ([…], time 28 day): 143.4 meq/L
- PL ([…], time 28 day): 193 mg/dL
- RALB ([…], time 28 day): 4.6 g/dL
- TBIL ([…], time 28 day): 0.3 mg/dL
- TC ([…], time 28 day): 120.2 mg/dL
- TG ([…], time 28 day): 116.2 mg/dL
- TP ([…], time 28 day): 7.6 g/dL
- gamma-GTP ([…], time 28 day): 11.4 IU/L
